What was measured:
c-Abl = biological target: T1, c-Abl (Homo sapiens, UniProt P00519); test: Abl filter-binding kinase assay (Abtide, [γ-32P]ATP); type: biochemical; settings: isolated Abl; calculated from ID50, ATP-competitive; E0 0.005, S0 0.012 µM
T1 construct: His tag; purchased Upstate (Lake Placid, NY, USA)
Experimental: Baculovirus-produced recombinant purified his-tagged active against human Src and Abl were purchased from Upstate (Lake Placid, NY, USA).
Src activity was measured in a filter-binding assay using the Src Assay Kit (Upstate, Lake Placid, NY, USA), according to the manufacturer's protocol, using the specific Src peptide substrate [[…]] in the presence of 0.125 pmol of Src and 0.160 pmol of [γ-^32P]ATP. Abl activity was measured in a filter-binding assay using an Abl specific peptide substrate (Abtide, Upstate). Reaction conditions were (in a final volume of 10 µl): 25 mM Tris-HCl pH 7.5, 1 mM DTT, 0.012 µM [γ-^32P]ATP, 0.022 µM c-Abl. Reactions were incubated 10 min at 30°C.The samples (9 µl) were spotted on paper cellulose filters which were washed according to the manufacturer's protocol. Filter-bound radioactivity was measured by liquid scintillation with a Microbeta-Trilux apparatus (PerkinElmer, Waltham, MA, USA).
The ID50 were converted to Ki according to a competitive mechanism with respect to the substrate ATP. […] Since (i) the ATP concentration was limiting, i.e., [ATP], Km(ATP), and (ii) the enzyme concentration was not negligible with respect to the ATP concentration, the classical Cheng-Prusoff relationship was not applicable. Consequently, Ki values were calculated according to [drawing 3] (2) where S0 is the concentration of the competing substrate (ATP) and E0 is the concentration of the enzyme. Each experiment was done in triplicate and mean values were used for the interpolation. Curve fitting was performed with the program GraphPad Prism.

HepG2 [1] = test: Whole genome expression analysis (Affymetrix microarray); type: cell-based, human
Experimental: (§1) The cells were harvested and RNA was isolated using RNeasy Mini Kit (Qiagen, Hilden, Germany) according to the instructions of the manufacturer. The isolated RNA (250 ng) was processed further using standard protocols as described recently with the exception of the 3′ IVT Express Kit (Affymetrix, High Wycombe, UK) that was utilized according to instructions. Quality control of cRNA was done with the Agilent 2100 Bioanalyzer (Agilent Tech according to manufacturer's protocols. Following fragmentation, cRNA of each sample was hybridized to Affymetrix GeneChip® Mouse Genome 430 2.0 or Human Genome U133 Plus 2.0 and scanned with an Affymetrix 3000 7G scanner.
(§2) The resultant data was normalized by Probe Logarithmic Intensity Error Estimation (PLIER) algorithm. Statistical analysis was carried out with the ArrayTrack software (National Center for Toxicological Research/FDA, Jefferson, AR, USA) using SAM algorithm.

CaCo2 = test: as above; type: cell-based, human
Experimental: as §1, §2

A549 = test: as above; type: cell-based, human
Experimental: as §1, §2

HepG2 [2] = test: Western blot, semi-quantitative protein expression; type: cell-based, human
Experimental: For the Western Blot analysis, cells were rinsed and lysed as previously described. An amount of 25 µg protein was used for SDS-PAGE. Antibodies for c-Abl (sc-131), Actin (sc-1616), Cdc2-p34 (sc-8395), EPS15 (sc-1840), FAK (sc-558), c-Fos (sc-52), p38 (sc-7972), p53 (sc-6243) and STAT5 (sc-835x) were obtained from Santa Cruz (Santa Cruz Biotechnology, Heidelberg, Germany), while c-Src (2109) and phospho-Src Y416 (2101) were purchased from Cell Signaling (Cell Signaling Technology, Frankfurt a. M., Germany). The EGFR (06-847), phospho-EGFR Y992 (07-821) and phospho-EGFR Y1045 (04-284) stem from Upstate (Upstate, Schwalbach, Germany) and the hnRNP-K (A300-676A) from Bethyl Labs (Bethyl Laboratories, Montgomery, Texas, USA). Finally p73 (IMG-246) was supplied by Imgenex (Imgenex, Hamburg, Germany). Depending on the primary antibody the secondary antibodies were either horseradish peroxidase-conjugated anti-mouse (AP 160P), anti-rabbit (AP 132P) or anti-sheep (AP 147P) (Chemicon, Schwalbach, Germany).
Semi-quantitative analysis were carried out with Kodak 1D Image Analysis Software in reference to the vehicle treated control cells (see supplementary table S7).

[3] = test system: murine and human cell lines; test: Whole genome expression analysis, statements over several cell lines; type: cell-based
Experimental: as §1, §2

[4] = IC50 concentration, 96 h, SAM FDR<0.01, FC>2

T1 sequence (P00519 whole entry): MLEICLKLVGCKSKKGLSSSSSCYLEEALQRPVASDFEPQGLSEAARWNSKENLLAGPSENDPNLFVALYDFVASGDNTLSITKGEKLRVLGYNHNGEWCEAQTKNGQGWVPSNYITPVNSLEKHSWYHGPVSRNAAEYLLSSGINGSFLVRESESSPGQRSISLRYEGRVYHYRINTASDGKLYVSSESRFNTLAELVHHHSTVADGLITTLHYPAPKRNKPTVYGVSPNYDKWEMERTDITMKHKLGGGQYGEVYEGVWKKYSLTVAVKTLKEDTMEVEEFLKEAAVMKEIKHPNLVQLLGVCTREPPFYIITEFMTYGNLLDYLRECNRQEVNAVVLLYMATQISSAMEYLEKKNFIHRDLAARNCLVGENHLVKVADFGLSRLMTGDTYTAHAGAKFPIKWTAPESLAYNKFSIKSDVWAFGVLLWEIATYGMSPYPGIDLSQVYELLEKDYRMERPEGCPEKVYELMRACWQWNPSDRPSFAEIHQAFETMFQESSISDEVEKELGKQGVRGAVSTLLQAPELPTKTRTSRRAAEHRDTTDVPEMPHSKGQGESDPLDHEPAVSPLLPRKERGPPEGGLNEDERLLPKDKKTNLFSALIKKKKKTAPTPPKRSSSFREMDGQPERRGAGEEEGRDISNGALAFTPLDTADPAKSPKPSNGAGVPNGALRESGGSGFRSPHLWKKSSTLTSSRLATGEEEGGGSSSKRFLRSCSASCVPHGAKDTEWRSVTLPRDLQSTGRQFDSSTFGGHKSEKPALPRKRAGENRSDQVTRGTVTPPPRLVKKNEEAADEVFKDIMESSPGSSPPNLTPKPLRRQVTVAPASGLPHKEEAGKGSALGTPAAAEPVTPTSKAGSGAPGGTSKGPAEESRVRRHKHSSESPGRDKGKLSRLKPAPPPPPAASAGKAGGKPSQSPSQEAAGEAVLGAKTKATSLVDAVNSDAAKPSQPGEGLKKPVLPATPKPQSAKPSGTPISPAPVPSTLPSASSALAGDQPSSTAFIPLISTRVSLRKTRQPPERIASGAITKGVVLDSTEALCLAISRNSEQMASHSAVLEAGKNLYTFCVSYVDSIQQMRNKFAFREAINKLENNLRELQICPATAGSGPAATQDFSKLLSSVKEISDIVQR

Fc1ccccc1CNc1ncnc2c1cnn2CC(Cl)c1ccc(Br)cc1 (stereo not drawn) [Si162]
Ki (c-Abl): 444 nM | Akt2 (v-akt murine thymoma viral oncogene homolog 2) regulated gene, Si162 vs Ktr FC (HepG2 [1]): -4.47 | Bcl2l1 (BCL2-like 1) regulated gene, Si162 vs Ktr FC (HepG2 [1]): 1.08 | Birc5 (baculoviral IAP repeat-containing 5) regulated gene, Si162 vs Ktr FC (HepG2 [1]): -4.98 | Capn2 (calpain 2, (m/II) large subunit) regulated gene, Si162 vs Ktr FC (HepG2 [1]): 2.34 | Casp3 (caspase 3, apoptosis-related cysteine peptidase) regulated gene, Si162 vs Ktr FC (HepG2 [1]): 1.08 | Casp6 (caspase 6, apoptosis-related cysteine peptidase) regulated gene, Si162 vs Ktr FC (HepG2 [1]): 1.01 | Cdc2 (cell division cycle 2 (Cdk1)) regulated gene, Si162 vs Ktr FC (HepG2 [1]): -5.34 | Cdh1 (cadherin 1, type 1, E-cadherin (epithelial)) regulated gene, Si162 vs Ktr FC (HepG2 [1]): 1.32 | Cdkn1a (cyclin-dependent kinase inhibitor 1A (p21Cip1)) regulated gene, Si162 vs Ktr FC (HepG2 [1]): 1.62 | Cdkn2a (cyclin-dependent kinase inhibitor 2A (p16)) regulated gene, Si162 vs Ktr FC (HepG2 [1]): 2.03 | Cdkn2b (cyclin-dependent kinase inhibitor 2B (p15)) regulated gene, Si162 vs Ktr FC (HepG2 [1]): 3.43 | Cenpa (centromere protein A) regulated gene, Si162 vs Ktr FC (HepG2 [1]): -4.35 | Egfr (epidermal growth factor receptor) regulated gene, Si162 vs Ktr FC (HepG2 [1]): 1.36 | Fas (Fas (TNF receptor superfamily, member 6)) regulated gene, Si162 vs Ktr FC (HepG2 [1]): 2.46 | Grb10 (growth factor receptor-bound protein 10) regulated gene, Si162 vs Ktr FC (HepG2 [1]): 1.12 | Jun (jun oncogene) regulated gene, Si162 vs Ktr FC (HepG2 [1]): 1.14 | Mdm2 (Mdm2 p53 binding protein homolog (mouse)) regulated gene, Si162 vs Ktr FC (HepG2 [1]): 1.15 | Mmp3 (matrix metallopeptidase 3 (stromelysin 1, progelatinase)) regulated gene, Si162 vs Ktr FC (HepG2 [1]): 4.17 | Pdgfrb (platelet-derived growth factor receptor, beta polypeptide) regulated gene, Si162 vs Ktr FC (HepG2 [1]): -4.81 | Pmaip1 (phorbol-12-myristate-13-acetate-induced protein 1 (Noxa)) regulated gene, Si162 vs Ktr FC (HepG2 [1]): 1.37 | Tgfb1i1 (transforming growth factor beta 1 induced transcript 1) regulated gene, Si162 vs Ktr FC (HepG2 [1]): 1.86 | Tuba1a (tubulin, alpha 1a) regulated gene, Si162 vs Ktr FC (HepG2 [1]): 4.28 | Differentially expressed genes, total (number) (HepG2 [1]; IC50 concentration, 96 h): more than 1400 | Significantly differentially regulated genes, downregulated (number) (HepG2 [1]; [4]): 707 | Significantly differentially regulated genes, upregulated (number) (HepG2 [1]; [4]): 717 | Cav1 (caveolin 1, caveolae protein, 22kDa) regulated gene, Si162 vs Ktr FC (CaCo2): 2.45 | Ceacam6 (carcinoembryonic antigen-related cell adhesion molecule 6) regulated gene, Si162 vs Ktr FC (CaCo2): 1.49 | Mmp1 (matrix metallopeptidase 1 (interstitial collagenase)) regulated gene, Si162 vs Ktr FC (CaCo2): 1.71 | Pmaip1 (phorbol-12-myristate-13-acetate-induced protein 1 (Noxa)) regulated gene, Si162 vs Ktr FC (CaCo2): 1.12 | Tuba1a (tubulin, alpha 1a) regulated gene, Si162 vs Ktr FC (CaCo2): 1.01 | Vim (vimentin) regulated gene, Si162 vs Ktr FC (CaCo2): 1.80 | Significantly differentially regulated genes, downregulated (number) (CaCo2; [4]): 6 | Significantly differentially regulated genes, upregulated (number) (CaCo2; [4]): 75 | Acta2 (actin, alpha 2, smooth muscle, aorta) regulated gene, Si162 vs Ktr FC (A549): 2.46 | Birc5 (baculoviral IAP repeat-containing 5) regulated gene, Si162 vs Ktr FC (A549): -6.60 | Capn12 (calpain 12) regulated gene, Si162 vs Ktr FC (A549): 1.16 | Ccna2 (cyclin A2) regulated gene, Si162 vs Ktr FC (A549): -6.93 | Ccnb1 (cyclin B1) regulated gene, Si162 vs Ktr FC (A549): -5.43 | Ccnb2 (cyclin B2) regulated gene, Si162 vs Ktr FC (A549): -6.15 | Cdc2 (cell division cycle 2 (Cdk1)) regulated gene, Si162 vs Ktr FC (A549): -7.06 | Cdh1 (cadherin 1, type 1, E-cadherin (epithelial)) regulated gene, Si162 vs Ktr FC (A549): 1.36 | Cdkn1a (cyclin-dependent kinase inhibitor 1A (p21Cip1)) regulated gene, Si162 vs Ktr FC (A549): 2.54 | Cdkn3 (cyclin-dependent kinase inhibitor 3) regulated gene, Si162 vs Ktr FC (A549): -5.90 | Ceacam6 (carcinoembryonic antigen-related cell adhesion molecule 6) regulated gene, Si162 vs Ktr FC (A549): 3.24 | Cenpa (centromere protein A) regulated gene, Si162 vs Ktr FC (A549): -6.17 | Ctsb (cathepsin B) regulated gene, Si162 vs Ktr FC (A549): 1.38 | Dgka (diacylglycerol kinase, alpha 80kDa) regulated gene, Si162 vs Ktr FC (A549): 1.92 | E2F1 (E2F transcription factor 1) regulated gene, Si162 vs Ktr FC (A549): -6.54 | Fas (Fas (TNF receptor superfamily, member 6)) regulated gene, Si162 vs Ktr FC (A549): 2.18 | Fn1 (fibronectin 1) regulated gene, Si162 vs Ktr FC (A549): 1.40 | Gadd45a (growth arrest and DNA-damage-inducible, alpha) regulated gene, Si162 vs Ktr FC (A549): 1.46 | Gsk3b (glycogen synthase kinase 3 beta) regulated gene, Si162 vs Ktr FC (A549): 1.51 | Inpp5d (inositol polyphosphate-5-phosphatase, 145kDa) regulated gene, Si162 vs Ktr FC (A549): 2.27 | Itgb4 (integrin, beta 4) regulated gene, Si162 vs Ktr FC (A549): 1.48 | Jun (jun oncogene) regulated gene, Si162 vs Ktr FC (A549): 1.36 | Mdm2 (Mdm2 p53 binding protein homolog (mouse)) regulated gene, Si162 vs Ktr FC (A549): 1.96 | Plk1 (polo-like kinase 1 (Drosophila)) regulated gene, Si162 vs Ktr FC (A549): -2.12 | Ptgs2 (prostaglandin-endoperoxide synthase 2) regulated gene, Si162 vs Ktr FC (A549): 1.27 | Tgfb1i1 (transforming growth factor beta 1 induced transcript 1) regulated gene, Si162 vs Ktr FC (A549): 1.15 | Tuba1a (tubulin, alpha 1a) regulated gene, Si162 vs Ktr FC (A549): 1.06 | Vtn (vitronectin) regulated gene, Si162 vs Ktr FC (A549): 4.54 | Significantly differentially regulated genes, downregulated (number) (A549; [4]): 472 | Significantly differentially regulated genes, upregulated (number) (A549; [4]): 785 | Actin protein expression (HepG2 [2]): 77 | Cdc2-p34 protein expression (HepG2 [2]): 12 | EGFR Y992-p protein expression (HepG2 [2]): 20 | EGFR Y1045-p protein expression (HepG2 [2]): 60 | EGFR protein expression (HepG2 [2]): 535 | EPS15 protein expression (HepG2 [2]): 56 | FAK protein expression (HepG2 [2]): 96 | STAT5 protein expression (HepG2 [2]): 35 | c-Abl protein expression (HepG2 [2]): 46 | c-Fos protein expression (HepG2 [2]): 58 | c-Src Y416-p protein expression (HepG2 [2]): 82 | c-Src protein expression (HepG2 [2]): 86 | hnRNP-K protein expression (HepG2 [2]): 59 | p38 protein expression (HepG2 [2]): 48 | p53 protein expression (HepG2 [2]): 73 | Commonly regulated genes in both murine cell lines (number) ([3]; A2C12 and GammaA3, Fig. 4D): 259 | Genes regulated in common amongst all three human cell lines (number) ([3]; A549, CaCo2, HepG2, Fig. 4B): two
